Blank lines part the entries; values can stand above or below the compound they belong to.
Tests used:
[1] = molecular target: T1, Endothelial lipase (EL) (Homo sapiens, UniProt Q9Y5X9); test: Endothelial lipase (EL) enzymatic assay, fluorescent substrate A10070 in DMPG vesicles; type: biochemical; conditions: EL from conditioned media of HT-1080 cells; compound preincubated 30 min at 37° C; read-out: EL IC50
T1 construct: HT-1080 cells that were transformed using RAGE technology (Athersys) to overexpress endogenous EL; endogenous in cells; conditioned medium used
T1 sequence (Q9Y5X9 21-500): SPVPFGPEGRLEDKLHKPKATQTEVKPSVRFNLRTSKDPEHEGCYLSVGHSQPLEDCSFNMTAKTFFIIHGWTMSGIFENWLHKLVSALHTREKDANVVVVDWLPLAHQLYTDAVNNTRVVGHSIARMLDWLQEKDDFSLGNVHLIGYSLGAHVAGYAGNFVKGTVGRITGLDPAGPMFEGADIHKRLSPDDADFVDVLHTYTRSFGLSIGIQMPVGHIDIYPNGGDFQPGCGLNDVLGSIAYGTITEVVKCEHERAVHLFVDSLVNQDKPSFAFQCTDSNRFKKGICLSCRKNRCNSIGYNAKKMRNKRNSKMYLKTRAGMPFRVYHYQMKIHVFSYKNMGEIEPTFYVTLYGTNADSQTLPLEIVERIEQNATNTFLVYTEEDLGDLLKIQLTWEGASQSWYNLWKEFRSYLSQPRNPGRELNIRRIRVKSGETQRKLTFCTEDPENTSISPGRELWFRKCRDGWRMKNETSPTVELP
Summary of the method: (§1)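 Compounds were preincubated with enzyme for 30 min at 37° C before FRET-substrate vesicles (A10070 in DMPG, 0.11 mole fraction) were added. Reaction rates were obtained from the 300–900 sec slope of fluorescence at 490/530 nm.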

[2] = molecular target: T2, hepatic lipase (HL) (Homo sapiens, UniProt P11150); test: Hepatic lipase (HL) enzymatic assay, fluorescent substrate A10070 in DMPG vesicles; type: biochemical; conditions: HL partially purified from conditioned media of COS cells; compound preincubated 30 min at 37° C; read-out: HL IC50
T2 construct: made in house; host or cells: COS cells (conditioned medium, partially purified)
T2 sequence (P11150 23-499): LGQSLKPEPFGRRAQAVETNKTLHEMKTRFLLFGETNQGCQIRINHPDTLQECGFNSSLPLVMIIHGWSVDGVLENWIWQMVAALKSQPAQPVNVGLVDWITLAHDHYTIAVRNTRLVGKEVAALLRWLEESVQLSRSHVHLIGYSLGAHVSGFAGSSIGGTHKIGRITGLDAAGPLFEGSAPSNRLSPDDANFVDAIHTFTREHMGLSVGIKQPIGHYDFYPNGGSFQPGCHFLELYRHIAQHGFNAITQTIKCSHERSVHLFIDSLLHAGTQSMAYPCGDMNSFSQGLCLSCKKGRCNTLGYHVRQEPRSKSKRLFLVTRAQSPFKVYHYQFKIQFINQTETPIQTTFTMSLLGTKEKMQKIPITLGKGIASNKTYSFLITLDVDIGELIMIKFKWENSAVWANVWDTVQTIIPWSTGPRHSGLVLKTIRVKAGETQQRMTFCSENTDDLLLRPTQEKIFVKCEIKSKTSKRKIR
Summary of the method: as §1

SMILES: CS(=O)(=O)C(c1nnc(CNS(N)(=O)=O)o1)c1nc2ccc(-c3cccc(C(=O)N4CCC(O)CC4)c3)cc2s1 (stereo not drawn) [Example 255, N-{[5-({6-[3-(4-hydroxypiperidine-1-carbonyl)phenyl]-1,3-benzothiazol-2-yl} (methanesulfonyl)methyl)-1,3,4-oxadiazol-2-yl]methyl} aminosulfonamide]
IC50 [1]: 2 nM
IC50 [2]: 46 nM

SMILES: NS(=O)(=O)NCc1nnc(C(c2nc3ccc(-c4ccc(C(=O)N5CCOCC5)c(Cl)c4)cc3s2)S(=O)(=O)Cc2ccccc2)o1 (stereo not drawn) [Example 149, N-((5-((benzylsulfonyl)(6-(3-chloro-4-(4-morpholinylcarbonyl)phenyl)-1,3-benzothiazol-2-yl)methyl)-1,3,4-oxadiazol-2-yl)methyl)sulfamide]
IC50 [1]: < 10 nM
IC50 [2]: 121 nM

SMILES: NS(=O)(=O)NCc1nnc(C(c2nc3ccc(-c4cc(F)cc(Cl)c4)cc3s2)S(=O)(=O)Cc2ccccc2)o1 (stereo not drawn) [Example 144, N-((5-((benzylsulfonyl)(6-(3-chloro-5-fluorophenyl)-1,3-benzothiazol-2-yl)methyl)-1,3,4-oxadiazol-2-yl)methyl) sulfamide]
IC50 [1]: < 10 nM
IC50 [2]: < 10 nM

SMILES: COC1CN(C(=O)c2cccc(-c3ccc4nc(C(c5nnc(CC6(C)NC(=O)NC6=O)o5)S(C)(=O)=O)sc4c3)c2)C1 (stereo not drawn) [Example 209, 5-({5-[methanesulfonyl({6-[3-(3-methoxyazetidine-1-carbonyl)phenyl]-1,3-benzothiazol-2-yl})methyl]-1,3,4-oxadiazol-2-yl}methyl)-5-methyl-imidazolidine-2,4-dione]
IC50 [1]: 18 nM
IC50 [2]: 227 nM

SMILES: CO[C@@H]1CCN(C(=O)c2cccc(-c3ccc4nc(C(c5nnc(CC6(C)NC(=O)NC6=O)o5)S(C)(=O)=O)sc4c3)c2)C1 (stereo partly drawn) [Example 211, 5-({5-[methanesulfonyl(6-{3-[(3R)-3-methoxy-pyrrolidine-1-carbonyl]phenyl}-1,3-benzothiazol-2-yl)methyl]-1,3,4-oxadiazol-2-yl}methyl)-5-methyl-imidazolidine-2,4-dione]
IC50 [1]: 2 nM
IC50 [2]: 575 nM

SMILES: COCCS(=O)(=O)C(c1nnc(CNS(N)(=O)=O)o1)c1nc2ccc(-c3cccc(C(=O)N4CCN(C)CC4)c3)cc2s1 (stereo not drawn) [Example 200, N-((5-(((2-methoxyethyl)sulfonyl)(6-(3-((4-methyl-1-piperazinyl)carbonyl)phenyl)-1,3-benzothiazol-2-yl)methyl)-1,3,4-oxadiazol-2-yl)methyl)sulfamide]
IC50 [1]: < 10 nM
IC50 [2]: 201 nM

SMILES: CS(=O)(=O)C(c1nnc(CC2SC(=O)NC2=O)o1)c1nc2ccc(-c3ccc(C(=O)OCc4ccccc4)cc3)cc2s1 (stereo not drawn) [Example 105, benzyl 4-(2-((5-((2,4-dioxo-1,3-thiazolidin-5-yl)methyl)-1,3,4-oxadiazol-2-yl)(methylsulfonyl)methyl)-1,3-benzothiazol-6-yl)benzoate]
IC50 [1]: < 10 nM
IC50 [2]: < 10 nM

SMILES: CN1CCN(C(=O)c2cccc(-c3ccc4nc(C(c5nnc(CNS(N)(=O)=O)o5)S(=O)(=O)CCC(F)(F)F)sc4c3)c2)CC1 (stereo not drawn) [Example 201, N-((5-((6-(3-((4-methyl-1-piperazinyl)carbonyl)phenyl)-1,3-benzothiazol-2-yl)((3,3,3-trifluoropropyl)sulfonyl)methyl)-1,3,4-oxadiazol-2-yl)methyl)sulfamide]
IC50 [1]: < 10 nM
IC50 [2]: 365 nM

SMILES: Cn1ccc(-c2ccc3sc(C(c4nnc(CNS(N)(=O)=O)o4)S(C)(=O)=O)nc3c2)cc1=O (stereo not drawn) [Example 245, N-[(5-{methanesulfonyl[5-(1-methyl-2-oxo-1,2-dihydropyridin-4-yl)-1,3-benzothiazol-2-yl]methyl}-1,3,4-oxadiazol-2-yl)methyl]aminosulfonamide]
IC50 [1]: 8 nM
IC50 [2]: 72 nM

SMILES: COC(=O)CCS(=O)(=O)C(c1nnc(CNS(N)(=O)=O)o1)c1nc2ccc(-c3cnn(C)c3)cc2s1 (stereo not drawn) [Example 112, methyl 3-(((6-(1-methyl-1H-pyrazol-4-yl)-1,3-benzothiazol-2-yl)(5-((sulfamoylamino)methyl)-1,3,4-oxadiazol-2-yl)methyl)sulfonyl)propanoate]
IC50 [1]: < 10 nM
IC50 [2]: < 10 nM

Results, then the compound that gave them:

IC50 [1]: 18 nM
IC50 [2]: 449 nM
SMILES: COCCNC(=O)c1cccc(-c2ccc3nc(C(c4nnc(CC5(C)NC(=O)NC5=O)o4)S(C)(=O)=O)sc3c2)c1 (stereo not drawn) [Example 205, 3-{2-[methanesulfonyl({5-[(4-methyl-2,5-dioxoimidazolidin-4-yl)methyl]-1,3,4-oxadiazol-2-yl})methyl]-1,3-benzothiazol-6-yl}-N-(2-methoxyethyl)benzamide]

IC50 [1]: 35 nM
IC50 [2]: 58 nM
SMILES: CS(=O)(=O)NCc1nnc(C(c2nc3ccc(-c4ccc(C(=O)N5CCOCC5)cc4)cc3s2)S(C)(=O)=O)o1 (stereo not drawn) [Example 173, N-((5-((Methylsulfonyl)(6-(4-(4-morpholinylcarbonyl)phenyl)-1,3-benzothiazol-2-yl)methyl)-1,3,4-oxadiazol-2-yl)methyl)methanesulfonamide]

IC50 [1]: 11 nM
IC50 [2]: 76 nM
SMILES: CC1(NC(=O)c2cccc(-c3ccc4nc(C(c5nnc(CC6(C)NC(=O)NC6=O)o5)S(C)(=O)=O)sc4c3)c2)CC1 (stereo not drawn) [Example 224, 3-{2-[methanesulfonyl({5-[(4-methyl-2,5-dioxo-imidazolidin-4-yl)methyl]-1,3,4-oxadiazol-2-yl})methyl]-1,3-benzothiazol-6-yl}-N-(1-methylcyclopropyl) benzamide]

IC50 [1]: < 10 nM
IC50 [2]: 277 nM
SMILES: O=C(Cc1nnc(C(c2nc3ccc(-c4ccc(C(=O)N5CCOCC5)cc4)cc3s2)S(=O)(=O)Cc2ccccc2)o1)NCC1(O)CCC1 (stereo not drawn) [Example 178, 2-(5-((benzylsulfonyl)(6-(4-(4-morpholinylcarbonyl)phenyl)-1,3-benzothiazol-2-yl)methyl)-1,3,4-oxadiazol-2-yl)-N-((1-hydroxycyclobutyl)methyl) acetamide]

IC50 [1]: < 10 nM
IC50 [2]: < 10 nM
SMILES: NS(=O)(=O)NCc1nnc(C(c2nc3ccc(-c4cnn(-c5ccc(F)cc5)c4)cc3s2)S(=O)(=O)Cc2ccccc2)o1 (stereo not drawn) [Example 138, N-((5-((benzylsulfonyl)(6-(1-(4-fluorophenyl)-1H-pyrazol-4-yl)-1,3-benzothiazol-2-yl)methyl)-1,3,4-oxadiazol-2-yl)methyl)sulfamide]

IC50 [1]: 19 nM
IC50 [2]: 37 nM
SMILES: CS(=O)(=O)C(c1nnc(CNS(N)(=O)=O)o1)c1nc2ccc(-c3cccc(C(=O)N4CCC4)c3)cc2s1 (stereo not drawn) [Example 264, N-{[5-({6-[3-(azetidine-1-carbonyl)phenyl]-1,3-benzothiazol-2-yl} (methanesulfonyl)methyl)-1,3,4-oxadiazol-2-yl]methyl}aminosulfonamide]

IC50 [1]: 10 nM
IC50 [2]: 22 nM
SMILES: CS(=O)(=O)C(c1nnc(CNS(N)(=O)=O)o1)c1nc2ccc(-c3cccc(C(=O)N4CC(O)C4)c3)cc2s1 (stereo not drawn) [Example 252, N-{[5-({6-[3-(3-hydroxyazetidine-1-carbonyl)phenyl]-1,3-benzothiazol-2-yl} (methanesulfonyl)methyl)-1,3,4-oxadiazol-2-yl]methyl}aminosulfonamide]

IC50 [1]: 13 nM
IC50 [2]: 2370 nM
SMILES: NS(=O)(=O)NCc1nnc(C(c2nc3ccc(C(=O)N4CCOCC4)cc3s2)S(=O)(=O)Cc2ccccc2)o1 (stereo not drawn) [Example 189, N-((5-((Benzylsulfonyl)(6-(4-morpholinylcarbonyl)-1,3-benzothiazol-2-yl)methyl)-1,3,4-oxadiazol-2-yl)methyl)sulfamide]

IC50 [1]: 130 nM
IC50 [2]: 56 nM
SMILES: CS(=O)(=O)C(c1nnc(C[C@@H]2NS(=O)(=O)N(C3CC3)C2=O)o1)c1nc2ccc(-c3ccccc3)cc2s1 (stereo partly drawn) [Example 181]

IC50 [1]: 38 nM
IC50 [2]: 356 nM
SMILES: COCCN(C)C(=O)c1cccc(-c2ccc3nc(C(c4nnc(CC5(C)NC(=O)NC5=O)o4)S(C)(=O)=O)sc3c2)c1 (stereo not drawn) [Example 227, 3-{2-[methanesulfonyl({5-[(4-methyl-2,5-dioxo-imidazolidin-4-yl)methyl]-1,3,4-oxadiazol-2-yl})methyl]-1,3-benzothiazol-6-yl}-N-(2-methoxyethyl)-N-methylbenzamide]

IC50 [1]: 54 nM
IC50 [2]: 25 nM
SMILES: CC(C)C(O)C(=O)NCc1nnc(C(c2nc3ccc(-c4ccccc4)cc3s2)S(C)(=O)=O)o1 (stereo not drawn) [Example 154, 2-hydroxy-3-methyl-N-((5-((methylsulfonyl)(6-phenyl-1,3-benzothiazol-2-yl)methyl)-1,3,4-oxadiazol-2-yl)methyl)butanamide]

From US20140011799A1 (Bristol-Myers Squibb Company, priority 2012, published 2014)
